Like-named read-outs stand apart in the source and are kept apart here.
T1: CARM1 N265Y (Homo sapiens, UniProt Q86X55, N265Y)
T1 sequence (Q86X55 135-479 N265Y): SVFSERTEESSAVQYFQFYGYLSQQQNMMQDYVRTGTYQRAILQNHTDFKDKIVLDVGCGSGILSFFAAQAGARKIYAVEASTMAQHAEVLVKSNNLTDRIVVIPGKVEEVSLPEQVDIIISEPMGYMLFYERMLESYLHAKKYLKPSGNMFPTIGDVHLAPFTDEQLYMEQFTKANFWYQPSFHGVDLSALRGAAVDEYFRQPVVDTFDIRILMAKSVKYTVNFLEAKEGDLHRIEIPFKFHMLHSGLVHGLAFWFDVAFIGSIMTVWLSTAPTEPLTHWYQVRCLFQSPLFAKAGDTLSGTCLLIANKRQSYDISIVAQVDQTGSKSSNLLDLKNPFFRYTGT

T2: CARM1_135–479 (Homo sapiens, UniProt Q86X55)
T2 construct: human CARM1, residues 135 to 479; MBP (N, cleaved yes); linker and TEV site […]; (N, cleaved yes); made in house; host or cells: E. coli BL21-CodonPlus (DE3)-RIL
T2 sequence (Q86X55 135-479): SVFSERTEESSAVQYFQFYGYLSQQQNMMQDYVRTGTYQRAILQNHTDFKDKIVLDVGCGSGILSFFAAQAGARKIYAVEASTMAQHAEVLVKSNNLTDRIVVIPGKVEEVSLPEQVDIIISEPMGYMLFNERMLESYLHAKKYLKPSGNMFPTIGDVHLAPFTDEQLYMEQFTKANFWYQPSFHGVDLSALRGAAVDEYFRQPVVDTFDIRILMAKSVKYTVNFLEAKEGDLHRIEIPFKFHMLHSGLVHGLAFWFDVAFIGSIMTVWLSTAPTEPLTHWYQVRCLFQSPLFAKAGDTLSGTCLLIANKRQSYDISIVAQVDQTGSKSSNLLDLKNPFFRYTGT

T3: human CARM1 (CARM1_135–479) (Homo sapiens, UniProt Q86X55)
T3 sequence (Q86X55 135-479): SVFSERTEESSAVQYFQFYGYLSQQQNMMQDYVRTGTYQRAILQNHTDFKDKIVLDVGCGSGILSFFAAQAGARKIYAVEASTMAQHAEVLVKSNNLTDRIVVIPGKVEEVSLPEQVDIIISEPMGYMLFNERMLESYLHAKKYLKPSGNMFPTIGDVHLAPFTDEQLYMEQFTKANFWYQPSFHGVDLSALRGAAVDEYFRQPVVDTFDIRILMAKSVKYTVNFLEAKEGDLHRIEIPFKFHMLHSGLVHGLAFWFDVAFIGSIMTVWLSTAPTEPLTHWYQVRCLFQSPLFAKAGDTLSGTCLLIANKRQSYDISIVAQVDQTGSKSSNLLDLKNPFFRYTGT

T4: CARM1 N161E (Homo sapiens, UniProt Q86X55, N161E)
T4 sequence (Q86X55 135-479 N161E): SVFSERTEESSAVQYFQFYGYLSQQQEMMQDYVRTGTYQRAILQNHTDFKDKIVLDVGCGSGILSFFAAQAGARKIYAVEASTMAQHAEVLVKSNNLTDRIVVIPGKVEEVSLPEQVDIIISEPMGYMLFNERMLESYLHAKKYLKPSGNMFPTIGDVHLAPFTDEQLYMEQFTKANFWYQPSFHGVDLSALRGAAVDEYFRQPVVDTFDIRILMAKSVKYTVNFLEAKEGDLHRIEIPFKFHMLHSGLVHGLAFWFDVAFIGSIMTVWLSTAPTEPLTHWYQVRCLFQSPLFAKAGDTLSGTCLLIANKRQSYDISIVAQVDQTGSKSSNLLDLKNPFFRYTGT

B1: catalytic domain of human CARM1, residues 135 to 479 (domain or fragment, UniProt Q86X55 135-479, looked up)
chain: SVFSERTEESSAVQYFQFYGYLSQQQNMMQDYVRTGTYQRAILQNHTDFKDKIVLDVGCGSGILSFFAAQAGARKIYAVEASTMAQHAEVLVKSNNLTDRIVVIPGKVEEVSLPEQVDIIISEPMGYMLFNERMLESYLHAKKYLKPSGNMFPTIGDVHLAPFTDEQLYMEQFTKANFWYQPSFHGVDLSALRGAAVDEYFRQPVVDTFDIRILMAKSVKYTVNFLEAKEGDLHRIEIPFKFHMLHSGLVHGLAFWFDVAFIGSIMTVWLSTAPTEPLTHWYQVRCLFQSPLFAKAGDTLSGTCLLIANKRQSYDISIVAQVDQTGSKSSNLLDLKNPFFRYTGT
notes: MBP and the linker removed with TEV protease; also called CARM1_(135–479); CARM1 catalytic domain; not shown: MBP, N-terminal, cleaved

What was measured:
CARM1 N265Y = target: T1, CARM1 N265Y; assay: ITC with CARM1 N265Y mutant; conditions: for N ± standard error, CARM1 N265Y / ∆H ± standard error, CARM1 N265Y / -T∆S, CARM1 N265Y / ∆G, CARM1 N265Y: ITC; for -T∆S, CARM1 N265Y / ∆G, CARM1 N265Y: calculated indirectly
CARM1_135–479 = target: T2, CARM1_135–479; assay: Radiometric methylation assay, CARM1 with H3(3–31) and [methyl-3H]-SAM; type: biochemical; conditions: 0.23 µM [3H]-SAM
[1] = target: T3, human CARM1 (CARM1_135–479); assay: Isothermal titration calorimetry (ITC) with CARM1 catalytic domain; type: binding; conditions: for -T∆S, CARM1: calculated indirectly; for ∆G, CARM1: calculated indirectly from best-fit Kd and ∆H; for Binding more strongly to CARM1 over PRMT1 (as judged by ITC): ratio of Kd values PRMT1/CARM1
CARM1 N161E = target: T4, CARM1 N161E; assay: ITC with CARM1 N161E mutant; conditions: for N ± standard error, CARM1 N161E / ∆H ± standard error, CARM1 N161E / -T∆S, CARM1 N161E / ∆G, CARM1 N161E: ITC; for -T∆S, CARM1 N161E / ∆G, CARM1 N161E: calculated indirectly
CARM1 = conditions: read-out: CARM1 inhibitor potency; cited from earlier work
[2] = test system: multiple myeloma xenograft model; design: method as in PMID 29269946; conditions: cited from earlier work
[3] = target: the molecule itself; assay: crystal structure; CARM1(135-479) co-crystallised with small-molecule inhibitors 4, 5, 6 and 7; sitting-drop vapour diffusion, 20°C; space group P2(1)2(1)2
[4] = 320 nM CARM1, 120 µM H3(3–31), read-out: IC50 (95% confidence interval), CARM1
[5] = ITC, 25°C, read-out: Kd ± standard error, CARM1
[6] = ITC, Table 2, wild-type, read-out: Kd ± standard error from curve fitting, CARM1 WT

Molecule	Kd (CARM1 N265Y) [µM]	N ± standard error, CARM1 N265Y (CARM1 N265Y)	∆H ± standard error, CARM1 N265Y (CARM1 N265Y) [kJ/mol]	-T∆S, CARM1 N265Y (CARM1 N265Y) [kJ/mol]	∆G, CARM1 N265Y (CARM1 N265Y) [kJ/mol]	IC50 (CARM1_135–479; [4]) [nM]	N (stoichiometry) ± standard error from curve fitting, CARM1 ([1]; ITC)	∆H ± standard error from curve fitting, CARM1 ([1]; ITC) [kJ/mol]	Kd [1, 5] [nM]	Kd [1, 6] [nM]	-T∆S, CARM1 ([1]; ITC) [kJ/mol]	∆G, CARM1 ([1]; ITC) [kJ/mol]	Binding more strongly to CARM1 over PRMT1 (as judged by ITC) [1] [fold]	Kd (CARM1 N161E) [nM]	N ± standard error, CARM1 N161E (CARM1 N161E)	∆H ± standard error, CARM1 N161E (CARM1 N161E) [kJ/mol]	-T∆S, CARM1 N161E (CARM1 N161E) [kJ/mol]	∆G, CARM1 N161E (CARM1 N161E) [kJ/mol]	further results
NCCCN(CCCNc1ccccn1)C[C@H]1O[C@@H](n2cnc3c(N)ncnc32)[C@H](O)[C@@H]1O [Inhibitor 9]	3.26 ± 0.458	1.07 ± 0.035	-61.9 ± 3.36	30.6	-31.3	300	0.529 ± 0.025	-86.2 ± 7.42	1140 ± 411	1140 ± 411	52.3	-34	~15	354 ± 34	0.914 ± 0.005	-86.7 ± 1.17	49.9	-36.8	–
Nc1ncnc2c1ncn2[C@@H]1O[C@H](CN(CCCNc2ccccn2)CC[C@H](N)C(=O)O)[C@@H](O)[C@H]1O [Inhibitor 10]	143 ± 75.9	–	–	–	–	–	0.536 ± 0.0079	-73.1 ± 1.92	–	–	39.1	-34	~40	181 ± 17	1.02 ± 0.004	-94.1 ± 0.971	55.6	-38.5	IC50 (CARM1_135–479; IC50 (95% confidence interval), CARM1, 320 nM CARM1, 120 µM H3(3–31)): 800 nM; Kd ([1]; Kd ± standard error from curve fitting, CARM1 WT, ITC, Table 2, wild-type): 1110 ± 132 nM; Kd ([1]; Kd ± standard error, CARM1, ITC, 25°C): 1110 ± 132 nM
CNC[C@@H](O)COc1ccc(Cl)c(-c2nc(-c3c(C)noc3C)c(C)c(N3CC4(CCN(C(=O)OC)CC4)C3)n2)c1 [EPZ022302/EZM2302]	–	–	–	–	–	–	–	–	–	–	–	–	–	–	–	–	–	–	IC50 (CARM1): […]; Anti-tumour activity in vivo [2]: anti-tumour activity in vivo
NCCCN(CCCNc1ncccn1)C[C@H]1O[C@@H](n2cnc3c(N)ncnc32)[C@H](O)[C@@H]1O [Inhibitor 8]	5.18 ± 1.86	0.698 ± 0.051	-62.8 ± 8.41	32.7	-30.2	700	0.529 ± 0.0042	-124 ± 1.86	2300 ± 162	2300 ± 162	92.2	-32.2	–	1110 ± 201	0.745 ± 0.012	-113 ± 3.79	79.2	-34	–
B1	–	–	–	–	–	–	–	–	–	–	–	–	–	–	–	–	–	–	binding result [3]: binds
